Results on four molecules are retold here after patent publication US20200188540A1, “CONFORMATIONALLY STRAINED TRANS-CYCLOALKENES FOR RADIOLABELING” (UNIVERSITY OF DELAWARE, priority 2015, published 2020).

In general, tissue uptake refers to the share of the injected amount in each gram of the tissue.

Data set [1] can be described thus: In vitro stability in 1× PBS buffer. It counts as physicochemical. The following applies: 37° C.; for radiochemical purity after incubation in 1× PBS: 2 hours. The procedure:
(§1) An aliquot of the solution (˜25 μCi) was taken out and loaded on HPLC at 1 h and 2 h time points for analysis. ^18F-9 was also incubated in FBS at 37° C. and after 1 h, an aliquot of the solution (˜25 μCi) was taken out and added to an equal volume of TFA. Similarly, ^18F-15 was also incubated in FBS at 37° C., and at 2 and 4 h time points, aliquots of the solution (˜25 μCi) were taken and added to an equal volume of TFA. For each sample, the mixture was centrifuged at 14000 rpm for 5 min. The supernatant was then diluted with 1 mL water and loaded on C18 Sep-Pak. After washing with 1 mL water, the cartridge was eluted with 0.5 mL acetonitrile. The water fraction and acetonitrile fraction were combined and loaded on HPLC for analysis

Data set [2] is described as follows: in vivo. The following applies: mouse, iv, 3.7 MBq (100 uCi), total radioactivity. As to the method: (§2) The localization of ^18F-15 in human U87MG tumor-bearing mice (n=5) was performed by static microPET scans at multiple time-point post tail vein injection. Selected decay-corrected coronal images at different time points were obtained after injection of 3.7 MBq (100 μCi) of ^18F-15. […] Data are expressed as average +/−SD.
(§3) Animal procedures were performed according to a protocol approved by the UNC Institutional Animal Care and Use Committee. PET scans and image analysis were performed using a small animal PET scanner. Human U87MG tumor-bearing mice were anesthetized using 2% isoflurane and injected with 3.7 MBq (100 μCi) of ^18F-15 via the tail vein. At 0.5, 1.0, 2.0, and 4.0 h post injection, static emission scans were acquired for 10 min. Normal nude mice were injected with 3.7 MBq (100 μCi) of the Diels-Alder conjugate obtained by combining ^18F-9 and 11), or in a separate experiment by injecting only ^18F-9 using the same protocol. Raw PET images were reconstructed using 2D ordered subset expectation maximization (OSEM) algorithm. No background correction was performed. Regions of interest (ROI) were manually drawn over the tumor and other organs on the decay corrected coronal images. Based on the assumption that the tissue density is 1 g/mL, the ROIs were converted to % ID/g by dividing dose per gram at ROI by injected dose.
(§4) Quantitative data were expressed as mean±SD. Means were compared using one-way ANOVA and Student's t test. P values<0.05 were considered statistically significant.

Data set [3] concerns human U87MG tumor. The data set is described as follows: in vivo. As to the method: as §2, §3, §4
Data set [4] in a line: In vitro stability in fetal bovine serum (FBS). The class given is in vitro ADME. The following applies: 37° C. As to the method: as §1
The nature of data set [5]: microPET imaging in normal (non-tumor bearing) nude mice. It counts as in vivo. The following applies: normal nude mouse. As to the method: The inventors also performed microPET imaging with a normal (non-tumor bearing) nude mouse that had been injected with ^18F-9. […] The inventors also analyzed the clearance of the compound obtained by combining ^18F-9 with 11. This Diels-Alder conjugate—and analog of ^18F-15 that lacks the RGD moiety—still remained in the blood circulatory system after 4 hours. The blood uptake was 2.4% ID/g at 4 h post injection. The inventors have previously reported ^18F-labeled RGD probes derived from trans-cyclooctene 1.
No background correction was performed.

Data set [6] can be described thus: Stopped-flow kinetic analysis of Diels-Alder reaction of sTCO diastereomers with PEGylated tetrazine 11. The following applies: for rate constant k2 with tetrazine 11: 55:45 MeOH:water at 25° C., stopped flow; for Mean k2: average of four sTCO concentrations, spread printed in cells below; for Mean k2 / k2 / kobs: tetrazine 11 0.05 mM, water:methanol 45:55, 25° C.; for kobs: in s-1 (unit assumed). As to the method:
Stopped flow kinetic analysis was used to measure the rate of the Diels-Alder reaction between tetrazine derivative 11 and anti- and syn-diastereomers of sTCO (4 and 5, respectively). […] The latter is the fastest rate constant that has been described for a bioorthogonal reaction. For the present study, the inventors used stopped flow analysis to compare the relative rate of the syn- and anti-diastereomers 5 and 4 with tetrazine 11 in mixed organic/aqueous media (55:45 MeOH:water at 25° C.). As expected, the rates in MeOH:water were ˜9 fold slower than the measurements made in purely aqueous media, but still extremely rapid. The rate constant for the syn-diastereomer 5 with tetrazine 11 was k2 3.7×10^4 (+/−0.1×10^3) M^−1s^−1, and the anti-diastereomer 4 reacted with a rate constant k2 3.3×10^4 (+/−0.1×10^3) M^−1s^−1. Because the syn-diastereomer was more reactive it was chosen for further development
The second order rate constant was measured under pseudo-first order conditions using an excess of the appropriate sTCO diastereomer (4 or 5), and by following the exponential decay of absorbance due to the tetrazine chromophore of 11 at 298 nm using an SX 18MV-R stopped-flow spectrophotometer (Applied Photophysics Ltd.). For each run, equal volumes of 45:55 water:methanol solutions of sTCO and PEGylated tetrazine 11 were mixed in the stopped flow device. Reactions were carried out with tetrazine 11 at 0.05 mM and final concentrations of 0.245, 0.49, 0.98 and 1.47 mM for the syn-diastereomer 5. Similarly, reactions were carried out with tetrazine 11 at 0.05 mM and final concentrations of 0.25, 0.50, 1.00 and 1.50 mM for the anti-diastereomer 4. A total of 400 data points were recorded over a period of 1 second, and each sample was performed in sextuplicate at 298 K. The kobs was determined by nonlinear regression analysis of the data points using Prism software (v. 6.00, GraphPad Software Inc.).
The reaction between sTCOs 4 & 5 and the PEGylated tetrazine 11 was measured under pseudo-first order conditions in water:methanol 45:55 by following the exponential decay of the tetrazine at 298 nm over time using an SX 18MV-R stopped flow spectrophotometer (Applied Photophysics Ltd.). Solutions were prepared for the sTCO concentrations see table below water:methanol 45:55) and the tetrazine (0.1 mM in water:methanol 45:55) and thermostatted in the syringes of the spectrophotometer before measuring. 400 data points were recorded over a period of 1 second, and performed in sextuplicate at 298 K. The kobs was determined by nonlinear regression analysis of the data points using Prism software (v. 6.00, GraphPad Software Inc.).
• PEGylated tetrazine 11 at 25° C. in water:methanol (45:55) measured under pseudo first order conditions using SX 18MV-R stopped flow spectrophotometer. Values were determined from an average of four runs. Synthesis and Characterization of a Conformationally Strained Trans-Cyclooctene with a Cis-Fused Cyclopentane Ring

For the molecule `N=C(N)NCCC[C@@H]1NC(=O)C(CCCCNC(=O)CCOCCOCCOCCOCCOCCOCCOCCOCCOCCOCCOCCOCCNC(=O)OCc2ccc(C3=NNC(c4ccccc4)=C4CC[C@H]5[C@@H](CCC34)[C@H]5COCCOCCOCCF)cc2)NC(=O)[C@@H](Cc2ccc(O)cc2)NC(=O)[C@H](CC(=O)O)NC(=O)CNC1=O` (stereo partly drawn) [^18F-15], the “radiochemical purity after incubation in 1× PBS” value in data set [1] was 98.5%. Further, in data set [2] (tumor (U87MG)), the tissue uptake at 0.5 h worked out at 5.3 %ID/g, the tissue uptake at 1 h was 6.9 %ID/g, the tissue uptake at 2 h came to 7.5 %ID/g and the tissue uptake at 4 h amounted to 8.9 %ID/g. Further, the tissue to tissue ratio at 4 h in data set [2] (tumor and kidney) was found to be 2.4. For the same molecule, the tissue to tissue ratio at 4 h in data set [2] (tumor and liver) came out at 1.6. For the same molecule, the “tumor uptake relative to other major organs” value in data set [3] (4 h post injection) was 1.6-2.4 fold. Also, the “tracer uptake in tumor, blocking experiment” value in data set [3] (co-injected with non-radio labeled cRGDyK (200 μg), 1 h post injection) is on record as 4.8+/−0.3%. Moreover, the “purity in fetal bovine serum” value in data set [4] (2 hours post incubation) worked out at 96.7%. Further, the “purity in fetal bovine serum” value in data set [4] (4 hours post incubation) was 94.5%.
With `FCCOCCOCCOC[C@@H]1[C@@H]2CC/C=C/CC[C@@H]21` [^18F-9], in data set [1] (1 hour), the “radiopurity after incubation in 1× PBS” value came out at 97.5%. For the same molecule, the “radiochemical purity after incubation in 1× PBS” value in data set [1] was 97.3%. Besides, the “radiochemical purity retained in fetal bovine serum” value in data set [4] (1 hour) worked out at 74%. In addition, in data set [5], the “time to clearance by the gallbladder, kidney and liver” value was no more than 2 h. The kinetics with diphenyl-s-tetrazines in data set [6] (general statement of reactivity) is reported as > 10^4 M^−1s^−1.
`OCC1C2CCC=CCCC12` (stereo not drawn) [Compound 4]: in data set [6], the “rate constant k2 with tetrazine 11” value is 3.3×10^4 (+/−0.1×10^3) M^−1s^−1. The “Mean k2” value in data set [6] was 31,700 M^−1s^−1. Further, the k2 in data set [6] (resulting sTCO 0.25 mM) came to 29832 M⁻¹ s⁻¹; in data set [6] (resulting sTCO 0.5 mM), 31680 M⁻¹ s⁻¹; in data set [6] (resulting sTCO 1 mM) it was 32510 M⁻¹ s⁻¹; in data set [6] (resulting sTCO 1.5 mM), 32653 M⁻¹ s⁻¹. Moreover, the kobs in data set [6] (resulting sTCO 0.25 mM) is recorded as 7.458; in data set [6] (resulting sTCO 0.5 mM), 15.84; in data set [6] (resulting sTCO 1 mM), 32.51; in data set [6] (resulting sTCO 1.5 mM), 48.98.
For `OC[C@H]1[C@H]2CC/C=C/CC[C@@H]12` [Compound 5, (rel-1R,8S,9S,4E)-Bicyclo[6.1.0]non-4-ene-9-ylmethanol], the “rate constant k2 with tetrazine 11” value in data set [6] is given as 3.7×10^4 (+/−0.1×10^3) M^−1s^−1. The “Mean k2” value in data set [6] was 36,100 M^−1s^−1. The k2 in data set [6] (resulting sTCO 0.245 mM) was 34347 M⁻¹ s⁻¹; in data set [6] (resulting sTCO 0.49 mM), 37571 M⁻¹ s⁻¹; in data set [6] (resulting sTCO 0.98 mM), 35796 M⁻¹ s⁻¹; in data set [6] (resulting sTCO 1.47 mM), 36857 M⁻¹ s⁻¹. Besides, the kobs is on record as 8.415 in data set [6] (resulting sTCO 0.245 mM), 18.41 in data set [6] (resulting sTCO 0.49 mM), 35.08 in data set [6] (resulting sTCO 0.98 mM) and 54.18 in data set [6] (resulting sTCO 1.47 mM).
